# Experimental data as given in publication PMC6429263, “Evolution and Antibacterial Evaluation of 8-Hydroxy-cycloberberine Derivatives as a Novel Family of Antibacterial Agents Against MRSA” (Molecules, 2019).
# How the values were obtained:
# [1] = system: MRSA 13-23; experiment: MIC, agar dilution, MRSA 13-23; type: cell-based; conditions: Staphylococcus aureus; MRSA 13-23; read-out: MIC
# [2] = system: MRSA 16-34; experiment: MIC, agar dilution, MRSA 16-34; type: cell-based; conditions: Staphylococcus aureus; MRSA 16-34; read-out: MIC
# [3] = system: MRSA 13-18; experiment: MIC, agar dilution, MRSA 13-18; type: cell-based; conditions: Staphylococcus aureus; MRSA 13-18; read-out: MIC
# [4] = system: MRSE 13-3; experiment: MIC, agar dilution, MRSE 13-3; type: cell-based, S. epidermidis; conditions: Staphylococcus epidermidis; MRSE 13-3; read-out: MIC
# [5] = system: MRSA ATCC -BAA-976; experiment: MIC, agar dilution, MRSA ATCC-BAA-976 (clindamycin-resistant); type: cell-based; conditions: Staphylococcus aureus; MRSA ATCC-BAA-976, clindamycin-resistant S. aureus; read-out: MIC
# [6] = system: VISA ATCC 700698; experiment: MIC, agar dilution, VISA ATCC 700698; type: cell-based; conditions: Staphylococcus aureus; VISA ATCC 700698; read-out: MIC
# [7] = system: MSSA ATCC 29213; experiment: MIC, agar dilution, MSSA ATCC 29213; type: cell-based, S. aureus; conditions: Staphylococcus aureus; MSSA ATCC 29213; read-out: MIC
# [8] = system: S.s ATCC 15305; experiment: MIC, agar dilution, S.s ATCC 15305; type: cell-based; conditions: Staphylococcus saprophyticus, ATCC15305; S. saprophyticus ATCC 15305; read-out: MIC
# [9] = system: MSSA 15; experiment: MIC, agar dilution, MSSA 15 (clinical isolate); type: cell-based, S. aureus; conditions: Staphylococcus aureus; MSSA 15, isolated from patients in China; read-out: MIC
# [10] = system: MSSA 16-1; experiment: MIC, agar dilution, MSSA 16-1 (clinical isolate); type: cell-based, S. aureus; conditions: Staphylococcus aureus; MSSA 16-1, isolated from patients in China; read-out: MIC
# [11] = system: VISA ATCC 700699; experiment: MIC, agar dilution, VISA ATCC 700699; type: cell-based; conditions: Staphylococcus aureus; VISA ATCC 700699; read-out: MIC
# [12] = system: MRSA ATCC-B AA-1708; experiment: MIC, agar dilution, MRSA ATCC-BAA-1708 (mupA positive); type: cell-based; conditions: Staphylococcus aureus; MRSA ATCC-BAA-1708, mupA positive (mupirocin resistance); read-out: MIC
# [13] = system: MSSE ATCC 12228; experiment: MIC, agar dilution, MSSE ATCC 12228; type: cell-based, S. epidermidis; conditions: Staphylococcus epidermidis, ATCC12228; MSSE ATCC 12228; read-out: MIC
# [14] = system: S.h ATCC 35982; experiment: MIC, agar dilution, S.h ATCC 35982; type: cell-based; conditions: Staphylococcus hominis, ATCC35982; S. hominis ATCC 35982; read-out: MIC
# [15] = system: MSSE 16-5; experiment: MIC, agar dilution, MSSE 16-5 (clinical isolate); type: cell-based, S. epidermidis; conditions: Staphylococcus epidermidis; MSSE 16-5, isolated from patients in China; read-out: MIC
# [16] = system: MRSE 16-5; experiment: MIC, agar dilution, MRSE 16-5; type: cell-based, S. epidermidis; conditions: Staphylococcus epidermidis; MRSE 16-5; read-out: MIC
# [17] = system: MRSA ATCC 43300; experiment: MIC, agar dilution, MRSA ATCC 43300; type: cell-based; conditions: Staphylococcus aureus; MRSA ATCC 43300; read-out: MIC
Compound,MIC [1],MIC [2],MIC [3],MIC [4],MIC [5],MIC [6],MIC [7],MIC [8],MIC [9],MIC [10],MIC [11],MIC [12],MIC [13],MIC [14],MIC [15],MIC [16],MIC [17]
"COc1ccc2c(c[n+]3ccc4cc5c(c6c(Cc7c(F)cccc7F)cc2c3c46)OCO5)c1O [13d, 1,2-Methylenedioxy-8-hydroxy-9-methoxy-13-2′,6′-difluorobenzylcycloberberine chloride]",> 64 µg/mL,> 64 µg/mL,> 64 µg/mL,> 64 µg/mL,> 64 µg/mL,> 64 µg/mL,> 64 µg/mL,> 64 µg/mL,> 64 µg/mL,> 64 µg/mL,> 64 µg/mL,> 64 µg/mL,> 64 µg/mL,> 64 µg/mL,> 64 µg/mL,32 µg/mL,> 64 µg/mL
"COc1ccc2c(c[n+]3ccc4cc5c(c6c(Cc7ccccc7C)cc2c3c46)OCO5)c1O [13g, 1,2-Methylenedioxy-8-hydroxy-9-methoxy-13-o-methylbenzylcycloberberine chloride]",> 64 µg/mL,> 64 µg/mL,> 64 µg/mL,64 µg/mL,> 64 µg/mL,> 64 µg/mL,> 64 µg/mL,> 64 µg/mL,> 64 µg/mL,> 64 µg/mL,> 64 µg/mL,> 64 µg/mL,> 64 µg/mL,> 64 µg/mL,> 64 µg/mL,64 µg/mL,> 64 µg/mL
"COc1ccc2c(c[n+]3ccc4cc5c(c6c(Cc7cc(C)cc(C)c7)cc2c3c46)OCO5)c1O [13j, 1,2-Methylenedioxy-8-hydroxy-9-methoxy-13-3′,5′-dimethylbenzylcycloberberine chloride]",32 µg/mL,16 µg/mL,32 µg/mL,16 µg/mL,32 µg/mL,32 µg/mL,32 µg/mL,64 µg/mL,32 µg/mL,32 µg/mL,32 µg/mL,16 µg/mL,32 µg/mL,32 µg/mL,16 µg/mL,16 µg/mL,32 µg/mL
"COc1ccc2c(c[n+]3ccc4cc5c(c6c(Cc7ccc(C(C)(C)C)cc7)cc2c3c46)OCO5)c1O [13k, 1,2-Methylenedioxy-8-hydroxy-9-methoxy-13-p-tert-butylmethylbenzylcyclo berberine chloride]",32 µg/mL,16 µg/mL,16 µg/mL,8 µg/mL,16 µg/mL,32 µg/mL,32 µg/mL,32 µg/mL,32 µg/mL,16 µg/mL,32 µg/mL,8 µg/mL,16 µg/mL,32 µg/mL,8 µg/mL,8 µg/mL,32 µg/mL
"COc1ccc2c(c[n+]3ccc4cc5c(c6c(Cc7ccc(OC(F)(F)F)cc7)cc2c3c46)OCO5)c1O [13l, 1,2-Methylenedioxy-8-hydroxy-9-methoxy-13-p-trifluoromethoxybenzylcyclo berberine chloride]",32 µg/mL,32 µg/mL,32 µg/mL,32 µg/mL,64 µg/mL,64 µg/mL,32 µg/mL,64 µg/mL,32 µg/mL,32 µg/mL,32 µg/mL,32 µg/mL,32 µg/mL,64 µg/mL,32 µg/mL,32 µg/mL,64 µg/mL
"COc1ccc2c(c[n+]3ccc4cc5c(c6c(Cc7ccccc7C#N)cc2c3c46)OCO5)c1O [13m, 1,2-Methylenedioxy-8-hydroxy-9-methoxy-13-o-cyanbenzylcycloberberine chloride]",> 64 µg/mL,> 64 µg/mL,> 64 µg/mL,> 64 µg/mL,> 64 µg/mL,> 64 µg/mL,> 64 µg/mL,> 64 µg/mL,> 64 µg/mL,> 64 µg/mL,> 64 µg/mL,> 64 µg/mL,> 64 µg/mL,> 64 µg/mL,> 64 µg/mL,> 64 µg/mL,> 64 µg/mL
"COc1ccc2c(c[n+]3ccc4cc5c(c6c(Cc7cccc(C#N)c7)cc2c3c46)OCO5)c1O [13n, 1,2-Methylenedioxy-8-hydroxy-9-dimethoxy-13-m-cyanbenzylcycloberberine chloride]",> 64 µg/mL,> 64 µg/mL,> 64 µg/mL,64 µg/mL,> 64 µg/mL,> 64 µg/mL,> 64 µg/mL,> 64 µg/mL,> 64 µg/mL,> 64 µg/mL,> 64 µg/mL,> 64 µg/mL,16 µg/mL,64 µg/mL,32 µg/mL,32 µg/mL,> 64 µg/mL
"COc1ccc2c(c[n+]3ccc4cc5c(c6c(Cc7cccc([N+](=O)[O-])c7)cc2c3c46)OCO5)c1O [13q, 1,2-Methylenedioxy-8-hydroxy-9-methoxy-13-m-nitrobenzylcycloberberine chloride]",> 64 µg/mL,> 64 µg/mL,> 64 µg/mL,64 µg/mL,64 µg/mL,> 64 µg/mL,> 64 µg/mL,> 64 µg/mL,> 64 µg/mL,64 µg/mL,64 µg/mL,> 64 µg/mL,64 µg/mL,64 µg/mL,32 µg/mL,32 µg/mL,> 64 µg/mL
"COc1ccc2c(c[n+]3ccc4cc5c(c6c(Cc7ccc([N+](=O)[O-])cc7)cc2c3c46)OCO5)c1O [13r, 1,2-Methylenedioxy-8-hydroxy-9-methoxy-13-p-nitrobenzylcycloberberine chloride]",8 µg/mL,8 µg/mL,32 µg/mL,> 64 µg/mL,32 µg/mL,4 µg/mL,16 µg/mL,32 µg/mL,8 µg/mL,16 µg/mL,4 µg/mL,4 µg/mL,4 µg/mL,8 µg/mL,4 µg/mL,16 µg/mL,64 µg/mL
"CCCc1cc2c3ccc(OC)c(O)c3c[n+]3ccc4cc5c(c1c4c23)OCO5 [15b, 1,2-Methylenedioxy-8-hydroxy-9-methoxy-13-propylcycloberberine chloride]",4 µg/mL,2 µg/mL,4 µg/mL,4 µg/mL,2 µg/mL,4 µg/mL,2 µg/mL,8 µg/mL,2 µg/mL,2 µg/mL,2 µg/mL,2 µg/mL,2 µg/mL,2 µg/mL,1 µg/mL,2 µg/mL,4 µg/mL
"CCCCc1cc2c3ccc(OC)c(O)c3c[n+]3ccc4cc5c(c1c4c23)OCO5 [15c, 1,2-Methylenedioxy-8-hydroxy-9-methoxy-13-butylcycloberberine chloride]",8 µg/mL,8 µg/mL,4 µg/mL,16 µg/mL,4 µg/mL,4 µg/mL,8 µg/mL,16 µg/mL,4 µg/mL,4 µg/mL,4 µg/mL,8 µg/mL,8 µg/mL,4 µg/mL,8 µg/mL,8 µg/mL,4 µg/mL
